The nature of this data set: Henry solubility constant Hcp at 298.15 K (mol/(m3 Pa)). To be noted: reference: Rytting et al. (1978).
In the case of `CCCCN` [1-butanamine], the “Henry solubility constant Hcp” value turned out to be 0.52.
Take `CCCCCCCN` [1-heptanamine]: the “Henry solubility constant Hcp” value was 0.24.
The same measure for `CCCCCCN` [1-hexanamine]: 0.32; for `CCCCCCCCN` [1-octanamine]: 0.19; for `CCCCCN` [1-pentanamine]: 0.4.
Turning to `CCCCCO` [1-pentanol], the “Henry solubility constant Hcp” value amounted to 0.9.
Regarding `CCC(C)O` (configuration not stated) [2-butanol], the “Henry solubility constant Hcp” value stood at 0.98.
With `CC(C)CO` [2-methyl-1-propanol], the “Henry solubility constant Hcp” value was 0.8.
The same measure for `CCCCCCC` [heptane]: 4.8e-06; for `CCCCCC` [hexane]: 5.4e-06.
As for `CCCCCCCC` [octane], the “Henry solubility constant Hcp” value was determined as 3.1e-06.
Regarding `CCCCC` [pentane], the “Henry solubility constant Hcp” value was found to be 7.8e-06.

For the origin of these results see Sander's compilation of Henry's law constants (doi:10.1002/jps.2600670510).
